Measurements reported in patent US7105534B2, “Imidazo[1,2-α]pyridine ether compounds as ion channel modulators” (Cardiome Pharma Corp., priority 2000, dated 2006).

Legend:
Kv1.5 = molecular target: T1, Kv1.5 (Homo sapiens, UniProt P22460); test: Patch-clamp inhibition of cloned ion channel current in transfected HEK cells: Kv1.5; format: cell-based; conditions: steady-state current, -80 mV to +60 mV
T1 construct: expressed in transfected cells; host or cells: HEK cells, transient transfection, vector pCDNA3
How it was run: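 Whole-cell patch clamp at 22–23 °C on transiently transfected HEK cells, compound 0.5–100 μM, pulses every 4 s. Na+: peak current, −100 mV holding, −30 mV for 10 ms; Kv1.5 (steady-state) and Kv4.2 (integrated): −80 mV holding, +60 mV for 200 ms. IC50 by Hill fit, 4–6 cells.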

Kv4.2 = molecular target: T2, Kv4.2 (Homo sapiens, UniProt Q9NZV8); test: Patch-clamp inhibition of cloned ion channel current in transfected HEK cells: Kv4.2; format: cell-based; conditions: integrated current, -80 mV to +60 mV
T2 construct: expressed in transfected cells; host or cells: HEK cells, transient transfection, vector pCDNA3
T2 sequence (Q9NZV8 1-630): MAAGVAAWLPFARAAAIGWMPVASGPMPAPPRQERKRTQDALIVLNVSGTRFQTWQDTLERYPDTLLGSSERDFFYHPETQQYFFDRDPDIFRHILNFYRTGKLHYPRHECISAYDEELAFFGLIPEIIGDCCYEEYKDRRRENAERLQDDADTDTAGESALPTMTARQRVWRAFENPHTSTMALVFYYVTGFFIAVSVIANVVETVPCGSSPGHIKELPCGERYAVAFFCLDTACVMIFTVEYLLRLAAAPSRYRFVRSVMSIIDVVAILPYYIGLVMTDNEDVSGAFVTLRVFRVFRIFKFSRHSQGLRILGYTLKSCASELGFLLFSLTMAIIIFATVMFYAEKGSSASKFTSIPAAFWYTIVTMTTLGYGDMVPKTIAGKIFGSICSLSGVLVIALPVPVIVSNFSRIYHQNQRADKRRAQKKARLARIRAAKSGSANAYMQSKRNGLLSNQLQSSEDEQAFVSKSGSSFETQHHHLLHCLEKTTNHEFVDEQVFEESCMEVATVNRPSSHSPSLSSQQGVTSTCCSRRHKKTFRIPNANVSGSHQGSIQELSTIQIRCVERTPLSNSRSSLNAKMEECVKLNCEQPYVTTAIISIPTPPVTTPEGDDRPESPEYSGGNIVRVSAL
Procedure: The relevant cloned ion channels (e.g. cardiac hH1, Kv1.4, Kv1.5, Kv4.2, Kv2.1, HERG etc.) are studied by transient transfection into HEK cells using the mammalian expression vector pCDNA3. Transfections for each channel type are carried out separately to allow individual study of the ion channel of interest. Cells expressing channel protein are detected by cotransfecting cells with the vector pHook-1 (Invitrogen, San Diego, Calif., USA). […] Equal concentrations of individual channel and pHook DNA are incubated with 10× concentration of lipofectAce in Modified Eagle's Medium (MEM, Canadian Life Technologies) and incubated with parent HEK cells plated on 25 mm culture dishes. After 3–4 hours the solution is replaced with a standard culture medium plus 20% fetal bovine serum and 1% antimycotic. Transfected cells are maintained at 37C in an air/5% CO2 incubator in 25 mm Petri dishes plated on glass coverslips for 24–48 hours to allow channel expression to occur. 20 min prior to experiments, cells are treated with beads coated with phOX. After 15 min, excess beads are […] off with cell culture medium and cells which had beads stuck to them are used for electrophysiological tests.
For whole-cell recording the control pipette filling solution contained (in mM): KCl, 130; EGTA, 5; MgCl2, 1; HEPES, 10; Na2ATP, 4; GTP, 0.1; and is adjusted to pH 7.2 with KOH. The control bath solution contained (in mM): NaCl, 135; KCI, 5; sodium acetate, 2.8; MgCl2, 1; HEPES, 10; CaCl2, 1; and is adjusted to pH 7.4 with NaOH. The test ion channel modulating compound is dissolved to 10 mM stock solutions in water and used at concentrations between 0.5 and 100 μM.
Coverslips containing cells are removed from the incubator before experiments and placed in a superfusion chamber (volume 250 μl) containing the control bath solution at 22C to 23C. All recordings are made via the variations of the patch-clamp technique, using an Axopatch 200A amplifier (Axon Instruments, CA). Patch electrodes are pulled from thin-walled borosilicate glass (World Precision Instruments; FL) on a horizontal micropipette puller, fire-polished, and filled with appropriate solutions. Electrodes had resistances of […] when filled with control filling solution. Analog capacity compensation is used in all whole cell measurements. In some experiments, leak subtraction is applied to data. Membrane potentials have not been corrected for any junctional potentials that arose between the pipette and bath solution. Data are filtered at 5 to 10 kHz before digitization and stored on a microcomputer for later analysis using the pClamp6 software (Axon Instruments, Foster City, Calif.). Due to the high level of expression of channel cDNA's in HEK cells, there is no need for signal averaging. The average cell capacitance is quite small, and the absence of ionic current at negative membrane potentials allowed faithful leak subtraction of data.
The concentration-response curves for changes in peak and steady-state current produced by the test compound are computer-fitted to the Hill equation: f=1−1/[1+([…])^n] [1]
where f is the fractional current (f=Idrug/Icontrol) at drug concentration [D]; IC50 is the concentration producing half-maximal inhibition and n is the Hill coefficient.
Compounds of the present invention may be evaluated by this method. […] Block is determined from the decrease in peak hH1 Na^+ current, or in steady-state Kv1.5 and integrated Kv4.2 current in the presence of drug. To record Na^+ current, cells are depolarized from the holding potential of −100 mV to a voltage of −30 mV for 10 ms to fully open and inactivate the channel. To record Kv1.5 and Kv4.2 current, cells are depolarized from the holding potential of −80 mV to a voltage of +60 mV for 200 ms to fully open the channel. Currents are recorded in the steady-state at a range of drug concentrations during stimulation every 4 s. […]

[1] = system: anesthetized rats subjected to coronary artery occlusion; test: Antiarrhythmic efficacy: arrhythmias after coronary artery occlusion in anesthetized rats; format: in vivo, rat; conditions: i.v. infusion
Text: Antiarrhythmic efficacy may be assessed by investigating the effect of a compound on the incidence of cardiac arrhythmias in anesthetized rats subjected to coronary artery occlusion. Rats weighing 200–300 gms are subjected to preparative surgery and assigned to groups in a random block design. In each case, the animal is anesthetized with pentobarbital during surgical preparation. The left carotid artery is cannulated for measurement of mean arterial blood pressure and withdrawal of blood samples. The left jugular vein is also cannulated for injection of drugs. The thoracic cavity is opened and a polyethylene occluder loosely placed around the left anterior descending coronary artery. The thoracic cavity is then closed. An ECG is recorded by insertion of electrodes placed along the anatomical axis of the heart. […] ECG, arrhythmias, blood pressure, heart rate and mortality are monitored for 15 minutes after occlusion. Arrhythmias are recorded as ventricular tachycardia (VT) and ventricular fibrillation (VF) and scored according to Curtis, M. J. and Walker, M. J. A., Cardiovasc. […]
Occlusion is associated with R-wave height and “S-T” segment elevation; and an occluded zone (measured after death by cardiogreen dye perfusion) in the range of 25%–50% of total left-ventricular weight.
Results of the test compounds may be expressed as values of a given infusion rate in micromol/kg/min. […]

T1 sequence (P22460 whole entry): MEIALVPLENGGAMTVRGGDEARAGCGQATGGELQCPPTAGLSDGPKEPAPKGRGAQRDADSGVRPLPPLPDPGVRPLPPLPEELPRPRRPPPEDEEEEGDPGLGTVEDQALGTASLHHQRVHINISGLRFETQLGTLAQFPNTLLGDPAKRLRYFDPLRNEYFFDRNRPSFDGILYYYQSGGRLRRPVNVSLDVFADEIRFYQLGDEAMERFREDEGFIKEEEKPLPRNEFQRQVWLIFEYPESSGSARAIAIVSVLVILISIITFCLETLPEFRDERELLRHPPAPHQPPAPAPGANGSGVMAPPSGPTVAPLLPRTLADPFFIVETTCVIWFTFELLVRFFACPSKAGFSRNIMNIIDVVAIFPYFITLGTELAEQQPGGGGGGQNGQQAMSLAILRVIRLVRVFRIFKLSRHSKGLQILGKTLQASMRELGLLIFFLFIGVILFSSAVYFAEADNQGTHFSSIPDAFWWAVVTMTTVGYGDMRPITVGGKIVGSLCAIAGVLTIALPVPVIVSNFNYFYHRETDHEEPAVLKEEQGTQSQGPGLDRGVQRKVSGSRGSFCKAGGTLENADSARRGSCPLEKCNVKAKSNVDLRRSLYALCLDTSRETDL

For COc1ccc(CCCOc2cccn3cc(C)nc23)cc1OC [Compound 3, 8-[3-(3,4-DIMETHOXYPHENYL)PROPOXY]-2-METHYLIMIDAZO[1,2-α]PYRIDINE MONOHYDROCHLORDE], the IC50 (Kv1.5) was 6 µM, the IC50 (Kv4.2) was 13 µM and the “ED50AA (infusion rate reducing arrhythmia score to 50% of vehicle-treated animals)” value [1] was 5 µmol/kg/min.
